Measured values: patent US20180353445A1, “METHODS AND COMPOSITIONS RELATING TO PROTEASOME INHIBITOR RESISTANCE” (Whitehead Institute for Biomedical Research, priority 2017, published 2018)
Entries after “also recorded” stand apart in the source; their conditions may differ.

Columns and labels:
[1] = tested on: T47D cells harboring a doxycycline inducible PSMD2 KD shRNA construct; experiment: Viability of PSMD2 knockdown versus control T47D cells, dose response and combinations (CellTiter-Glo); format: cell-based, human; conditions: for sensitivity of PSMD2 KD cells versus control cells (cell viability): 1 ug/ml doxycycline 72 h, viability 72 hours after addition, CellTiter-Glo
Protocol: Cell viability was measured by CellTiter-Glot Luminescent Cell Viability Assay 72 hours after addition of the compounds to cells.
Cell viability was measured by CellTiter-Glo® Luminescent Cell Viability Assay 72 hours after addition of the compounds were added to cells.
Cell viability was measured by CellTiter-Glolk Luminescent Cell Viability Assay 72 hours after addition of the compounds to cells.
To directly test whether altered cellular metabolism can modulate the sensitivity of cancer cells to proteasome inhibitors, we engineered the breast cancer cell line T47D into Lo19S and increased OXPHOS states. Initially, we reconstituted the Lo19S state by transient suppression of the PSMD2 subunit of the 19S complex using an inducible shRNA.
To induce a high OXPHOS (Hi-OXPHOS) state, we changed the carbon source in the cell culture media from glucose to galactose, which is poorly fermentable. This method has been previously shown to drive glutamine utilization by mitochondria and to thus increase mitochondrial respiration (Gohil et al., 2010). […] We reasoned that the Hi-OXPHOS signature we identified in Lo19S patient tumors may cooperate with the Lo19S state to further promote the ability of the cells to withstand proteotoxic stress.
Cell viability—where indicated relative cell number following different drug treatment was conducted by plating cells at 1000 cells/well in 384 well plates. Indicated concentrations of compounds were added 24 hour after plating at least in triplicate for each condition. Viability was measured 72 hours after drug addition using cell titer-glo (Promega) according to manufactures protocol. Same protocol was applied for the experiments conducted for the Lo19S T47D, MCF7 and T47D in the context of altered carbon source only the cells were plated at 1000 cells/well in RPMI media (without glucose and with dialyzed serum) containing either 10 mM Glucose or lOmM galactose.

T47D cells = experiment: The glucose/galactose drug screen; format: cell-based, human; conditions: for relative viability change of cells grown in glucose versus galactose: 10 mM Glucose or Galactose, Selleck anti cancer and natural product libraries
MM.1.S xenograft = experiment: Disseminated (orthotopic) multiple myeloma MM.1.S xenograft model and survival study; format: in vivo, mouse; conditions: for effect on tumor burden / tumor progression (BLI) / median OS: SCID mice, MM.1.S; for effect on tumor burden / tumor progression (BLI): bioluminescence imaging; for median OS: control median OS 36
Protocol: To test this hypothesis, we established an orthotopic luciferized MM.1.S xenograft model by intravenous injection of MM.1.S cells into severe combined immunodeficient (SCID) mice. After engraftment, the mice were randomized into treatment groups, each carrying equivalent tumor burdens based on bioluminescence imaging (BLI). Mice were then treated with either vehicle alone, bortezomib, elesclomol or with the two drugs in combination.
GFP^+/Luc^+MM.1S cells were generated by retroviral transduction of the human MM1.S that was purchased from ATCC (Manassas, Va., USA)., using the pGC-GFP/Luc vector. Cells were authenticated by short tandem repeat DNA profiling.
Disseminated Multiple Myeloma Animal model and survival study—A total of 25 Female SCID-beige mice at 4-6 weeks of age (Taconic, USA) were utilized for the study. Tumors cells (3 million […] MM1S cells/mouse) were introduced into mice via intravenous injection and were allowed to grow until the LUC signal from their tumors reached 1×10^7 radians (photons/sec/cm^2/surface area). Tumor growth was monitored weekly by bioluminescence imaging (BLI), using an IVIS Spectrum-bioluminescent and fluorescent imaging system (Perkins Elmer). Mice were randomly attributed a group of treatment (n=5 per group). Control group was IV injected once a week 200 uL saline solution; Bortezomib (0.25 mg/kg, 100 uL) was IP injected first day of the week, once a week until death of the animal. Elesclomol (25 mg/kg, 100 uL) was subcutaneously injected every 3rd day of the week until death of the animal. Elesclomol+Bortezomib group were treated similarly to previous groups. The delayed group started the elesclomol treatment 14 days after the inclusion of the animal in the study. Endpoint of the study was dictated by either limb-paralysis of the animal or severe toxicity induced by the treatment as per Dana-Farber Animal policy.

IMR32 and Kelly cells = experiment: Viability of IMR32 vs Kelly neuroblastoma cells; format: cell-based, human
Protocol: FIGS. 24A-24C: (FIG. 24A) Plot showing the effect of various concentrations of ABT-263 on IMR32 and Kelly cells. (FIG. 24B) Plot showing effect of various concentrations of disulfiram on IMR32 and Kelly cells. (FIG. 24C) Plot showing effect of various concentrations of elesclomol on IMR32 and Kelly cells. Fold viability refers to the number of viable cells of the indicated type after culture in the presence of the indicated test compound for 72 hours divided by the number of viable cells of that type after culture in the absence of the test compound.
FIG. 28: The relative viability was examined in IMR32 cells and Kelly cells after addition of indicated concentrations of the different BCL2 family inhibitors. ABT-263 (BCL2, BCLXL, MCL1) (upper left panel), ABT-199 (BCL2) (upper right panel), WEHI-539 (BCLXL) (lower left panel), A-1210477 (MCL1) (lower right panel). The relative effect on cell growth was analyzed 72 hours after addition of drugs.

CC1(C)CCC(c2ccc(Cl)cc2)=C(CN2CCN(c3ccc(C(=O)NS(=O)(=O)c4ccc(N[C@H](CCN5CCOCC5)CSc5ccccc5)c(S(=O)(=O)C(F)(F)F)c4)cc3)CC2)C1 [ABT-263, navitoclax]
sensitivity of PSMD2 KD cells versus control cells (cell viability) [1]: more sensitive; also recorded: not sufficient, however, to induce a profound sensitization

CC(C)C[C@H](NC(=O)[C@H](Cc1ccccc1)NC(=O)c1cnccn1)B(O)O [bortezomib]
relative viability change of cells grown in glucose versus galactose (T47D cells): strongest hits in this screen | sensitivity of PSMD2 KD cells versus control cells (cell viability) [1]: increase in resistance | increase in the EC90 on combining the Lo19S and Hi-OXPHOS states ([1]; T47D, PSMD2 suppression plus galactose medium): 50 fold | increase of proliferation inhibition EC50 on inducing the Lo19S state ([1]; T47D, transient PSMD2 suppression versus control): ~4 fold | effect on tumor burden / tumor progression (BLI) (MM.1.S xenograft): modest effects on tumor burden | median OS (MM.1.S xenograft): 40 | resistance of IMR32 cells compared to Kelly cells (IMR32 and Kelly cells): increased resistance

CN(NC(=O)CC(=O)NN(C)C(=S)c1ccccc1)C(=S)c1ccccc1 [elesclomol]
relative viability change of cells grown in glucose versus galactose (T47D cells): cells that respire are predominantly sensitive; also recorded: preferentially targeted respiring cells; also recorded: more potent in cells in the Hi-OXPHOS state | number of concentrations at which respiring cells were preferentially targeted (T47D cells; galactose versus glucose): 5 concentrations | effect on tumor burden / tumor progression (BLI) (MM.1.S xenograft): modest effects on tumor burden | median OS (MM.1.S xenograft): 39 | effect on survival (MM.1.S xenograft; versus control): modestly but significantly increased survival
